# Source: patent EP2987533B1, “7-substituted piperazin-1-yl fluoroquinolone compounds, their use in the treatment of cancer, pharmaceutical compositions and a method for preparation” (priority 2014, dated 2016)
# Columns and labels:
# OVCAR-4 [1] = assay: NCI five-dose SRB growth assay; type: cell-based; conditions: Homo sapiens; OVCAR-4 (Ovarian Cancer), 48 h
# CAKI-1 = assay: NCI five-dose SRB growth assay; type: cell-based; conditions: Homo sapiens; CAKI-1 (Renal Cancer), 48 h
# OVCAR-8 = assay: NCI five-dose SRB growth assay; type: cell-based; conditions: Homo sapiens; OVCAR-8 (Ovarian Cancer), 48 h
# MOLT-4 [2] = assay: NCI five-dose SRB growth assay; type: cell-based; conditions: Homo sapiens; MOLT-4 (Leukemia), 48 h
# CNS cancer = assay: NCI five-dose SRB assay, subpanel average; conditions: 48 h
# colon cancer = assay: NCI five-dose SRB assay, subpanel average; conditions: 48 h
# [3] = test system: full panel of about 60 human tumor cell lines; assay: NCI five-dose SRB assay, full panel mean; conditions: 48 h
# MCF7 = assay: NCI five-dose SRB growth assay; type: cell-based; conditions: Homo sapiens; MCF7 (Breast Cancer), 48 h
# renal cancer = assay: NCI five-dose SRB assay, subpanel average; conditions: 48 h
# prostate cancer = assay: NCI five-dose SRB assay, subpanel average; conditions: 48 h
# UACC-257 = assay: NCI five-dose SRB growth assay; type: cell-based; conditions: Homo sapiens; UACC-257 (Melanoma), 48 h
# A498 = assay: NCI five-dose SRB growth assay; type: cell-based; conditions: Homo sapiens; A498 (Renal Cancer), 48 h
# MDA-MB-435 = assay: NCI five-dose SRB growth assay; type: cell-based; conditions: Homo sapiens; MDA-MB-435 (Melanoma), 48 h
# SK-MEL-5 = assay: NCI five-dose SRB growth assay; type: cell-based; conditions: Homo sapiens; SK-MEL-5 (Melanoma), 48 h
# [4] = test system: 60 human tumor cell line panel; assay: NCI 60 cell line one-dose SRB primary anticancer assay; type: cell-based; conditions: 60 cell lines assay in one dose, 10µM (title; head prints 10.0 mM), 48 h
# NCI/ADR-RES = assay: NCI one-dose SRB growth assay; type: cell-based; conditions: Homo sapiens; NCI/ADR-RES (Ovarian Cancer), 10^-5 M, 48 h; read-out: % Growth Inhibition (GI %)
# How it was run: (§1)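 Compounds were tested at a single concentration of 10^-5M against a panel of about 60 human tumor cell lines following the NCI protocol. After 48 h incubation, cell protein was stained with sulforhodamine B and read spectrophotometrically. Values are growth percentage relative to untreated control cells.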
# CCRF-CEM = assay: NCI one-dose SRB growth assay; type: cell-based; conditions: Homo sapiens; CCRF-CEM (Leukemia), 10^-5 M, 48 h; read-out: % Growth Inhibition (GI %)
# 786-0 = assay: NCI one-dose SRB growth assay; type: cell-based; conditions: Homo sapiens; 786-0 (Renal Cancer), 10^-5 M, 48 h; read-out: % Growth Inhibition (GI %)
# How it was run: as §1
# PRMI-8226 = assay: NCI one-dose SRB growth assay; type: cell-based; conditions: Homo sapiens; PRMI-8226 (Leukemia), 10^-5 M, 48 h; read-out: % Growth Inhibition (GI %)
# How it was run: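 Screening used the NCI Drug Evaluation Branch protocol on roughly 60 human cancer cell lines. Compound exposure: 10^-5M, 48 h. Cell mass quantified by sulforhodamine B binding, read by spectrophotometer, reported as % growth compared with untreated control.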
# UO-31 = assay: NCI one-dose SRB growth assay; type: cell-based; conditions: Homo sapiens; UO-31 (Renal Cancer), 10^-5 M, 48 h; read-out: % Growth Inhibition (GI %)
# How it was run: as §1
# OVCAR-4 [5] = assay: NCI one-dose SRB growth assay; type: cell-based; conditions: Homo sapiens; OVCAR-4 (Ovarian Cancer), 10^-5 M, 48 h; read-out: % Growth Inhibition (GI %)
# How it was run: as §1
# SF-295 = assay: NCI one-dose SRB growth assay; type: cell-based; conditions: Homo sapiens; SF-295 (CNS Cancer), 10^-5 M, 48 h; read-out: % Growth Inhibition (GI %)
# How it was run: as §1
# MOLT-4 [6] = assay: NCI one-dose SRB growth assay; type: cell-based; conditions: Homo sapiens; MOLT-4 (Leukemia), 10^-5 M, 48 h; read-out: % Growth Inhibition (GI %)
# How it was run: as §1
# breast cancer = assay: NCI five-dose SRB assay, subpanel average; conditions: 48 h
# OVCAR-5 = assay: NCI five-dose SRB growth assay; type: cell-based; conditions: Homo sapiens; OVCAR-5 (Ovarian Cancer), 48 h
# T-47D = assay: NCI five-dose SRB growth assay; type: cell-based; conditions: Homo sapiens, T47D; T-47D (Breast Cancer), 48 h
# ovarian cancer = assay: NCI five-dose SRB assay, subpanel average; conditions: 48 h
# RXF 393 = assay: NCI five-dose SRB growth assay; type: cell-based; conditions: Homo sapiens; RXF 393 (Renal Cancer), 48 h
# leukemia = assay: NCI five-dose SRB assay, subpanel average; conditions: 48 h
# [7] = Homo sapiens, read-out: GI50 (median growth inhibitory)
# [8] = Homo sapiens, read-out: LC50 (median lethal)
compound,measurement,setting,value
CCn1cc(C(=O)O)c(=O)c2cc(F)c(N3CCN(S(=O)(=O)c4ccc(Cl)cc4Cl)CC3)cc21 [Compound 2a],GI50,OVCAR-4 [1],2580 nM
same,GI50,CAKI-1,2010 nM
same,GI50,OVCAR-8,3.3 µM
same,GI50,MOLT-4 [2],3.55 µM
same,GI50,CNS cancer; [7],3.03 µM
same,CC50,CNS cancer; [8],77.2 µM
same,TGI (total growth inhibitory),"CNS cancer; average over CNS cancer subpanel, five concentrations",34.84 µM
same,GI50,colon cancer; [7],3.15 µM
same,CC50,colon cancer; [8],77.2 µM
same,TGI (total growth inhibitory),"colon cancer; average over colon cancer subpanel, five concentrations",72.89 µM
same,CC50,"[3]; Homo sapiens, 60 cell, read-out: LC50 MG-MID (Full panel mean-graph midpoint)",57.5 µM
same,GI50,"[3]; Homo sapiens, read-out: GI50 MG-MID (Full panel mean-graph midpoint)",2630 nM
same,TGI MG-MID (Full panel mean-graph midpoint),"[3]; full panel, five concentrations",14.12 µM
same,GI50,MCF7,2950 nM
same,GI50,renal cancer; [7],2730 nM
same,CC50,renal cancer; [8],82.5 µM
same,TGI (total growth inhibitory),"renal cancer; average over renal cancer subpanel, five concentrations",23.97 µM
same,GI50,prostate cancer; [7],2620 nM
same,CC50,prostate cancer; [8],> 100 µM
same,TGI (total growth inhibitory),"prostate cancer; average over prostate cancer subpanel, five concentrations",8.72 µM
same,GI50,UACC-257,2650 nM
same,GI50,A498,2990 nM
same,GI50,MDA-MB-435,1970 nM
same,GI50,SK-MEL-5,1870 nM
same,PCE (Positive cytotoxic effect: ratio between number of cell lines with percentage growth inhibition from 10 to >100 and total number of cell lines),[4],56/58
same,RGI % (Range of growth inhibition percentage),[4],>100.0 to 25.22%
same,inhibition at 10 µM,"[4]; Homo sapiens, read-out: MGI % (Mean growth inhibition percentage)",94.2%
same,inhibition at 10 µM,NCI/ADR-RES,90.7%
same,inhibition at 10 µM,CCRF-CEM,97.2%
same,inhibition at 10 µM,786-0,81.3%
same,inhibition at 10 µM,PRMI-8226,90.9%
same,inhibition at 10 µM,UO-31,> 100%
same,inhibition at 10 µM,OVCAR-4 [5],< 10%
same,inhibition at 10 µM,SF-295,> 100%
same,inhibition at 10 µM,MOLT-4 [6],98.2%
same,GI50,breast cancer; [7],2510 nM
same,CC50,breast cancer; [8],88.1 µM
same,TGI (total growth inhibitory),"breast cancer; average over breast cancer subpanel, five concentrations",8.44 µM
same,GI50,OVCAR-5,3.43 µM
same,GI50,T-47D,3.11 µM
same,GI50,ovarian cancer; [7],2960 nM
same,CC50,ovarian cancer; [8],76.7 µM
same,TGI (total growth inhibitory),"ovarian cancer; average over ovarian cancer subpanel, five concentrations",39.54 µM
same,GI50,RXF 393,2080 nM
same,GI50,leukemia; [7],3.07 µM
same,CC50,leukemia; [8],> 100 µM
same,TGI (total growth inhibitory),"leukemia; average over leukemia subpanel, five concentrations",62.54 µM
